According to US12648559B2, “Topical mosquito control product with sunscreen” (Pouch Pac Innovations, LLC, priority 2016, dated 2026):

System: Aedes aegypti mosquitoes
Experiment: Arm-in-cage testing of protective efficacy
Assay type: in vivo
Procedure: Additional testing was performed with the lotion of example 3 including sunflower oil, isopropyl alcohol, peppermint oil, citronella oil, zinc oxide, water and turmeric oil with the following protocols. Aedes aegypti mosquitoes were obtained from insecticide-susceptible reference strains held at the London School of Hygiene & Tropical Medicine, UK. All mosquitoes are reared and housed under optimal environmental conditions of 25° C.±2° C. and 80% Relative Humidity with a 12:12 hour photoperiod. Testing was carried out in a testing room maintained at […] with a 12:12 hour photoperiod. For each product, the same person carried out the arm-in-cage testing.
For each product test, three batches of 50 female mosquitoes were placed in cages inside the testing room. Before the start of each test a bare arm with gloved hand was inserted into the cage for 30 seconds to assess the biting readiness of the mosquitoes. […] The number of mosquitoes probing the untreated arm was counted at the end of the 30 second test.
Following the combined fitness/control test, the product was applied onto the right arm at the WHO standard rate of 1 ml per 600 cm 2 […] for DEET, and at a rate of 2 mg per cm′ for the Sunscreen Repellent. The arm was then inserted into the cage for 30 seconds and the number of mosquitoes probing on the arm counted and recorded. […]

## CCN(CC)C(=O)c1cccc(C)c1 [8% DEET]
Time after application with 50% protection
  50% protective efficacy time: 6 h
Time after application with 100% protection
  complete (100%) protective efficacy time: 1 h
